These results are taken from patent US20230192617A1, “AZABICYCLIC(THIO)AMIDES AS FUNGICIDAL COMPOUNDS” (Bayer CropScience Aktiengesellschaft, priority 2020, published 2023).

Data set [1] can be described thus: Measurement of Log P values by HPLC on reversed phase columns (EEC directive 79/831 Annex V.A8). It counts as physicochemical. To be noted: reversed phase HPLC column. The procedure: A-1.1. Measurement of Log P Values
Measurement of Log P values as provided herein was performed according to EEC directive 79/831 Annex V.A8 by HPLC (High Performance Liquid Chromatography) on reversed phase columns with the following methods:
^[a] Log P value is determined by measurement of LC-UV, in an acidic range, with 0.1% formic acid in water and acetonitrile as eluent (linear gradient from 10% acetonitrile to 95% acetonitrile).
^[b] Log P value is determined by measurement of LC-UV, in a neutral range, with 0.001 molar ammonium acetate solution in water and acetonitrile as eluent (linear gradient from 10% acetonitrile to 95% acetonitrile).
^[c] Log P value is determined by measurement of LC-UV, in an acidic range, with 0.1% phosphoric acid and acetonitrile as eluent (linear gradient from 10% acetonitrile to 95% acetonitrile).
If more than one Log P value is available within the same method, all the values are given and separated by “+”. […]

For a further data set, the system named is Alternaria brassicae. Nature of the data set: In vivo preventive test on Alternaria brassicae (leaf spot on radish or cabbage). To be noted: 500 ppm of active ingredient, preventive spray on radish or cabbage, evaluated 3 to 4 days after inoculation, read-out: efficacy. On the procedure: B-1. In Vivo Preventive Test on Alternaria brassicae (Leaf Spot on Radish or Cabbage) [table] The active ingredients were made soluble and homogenized in a mixture of Dimethyl sulfoxide/Acetone/Tween® 80 and then diluted in water to the desired concentration. The young plants of radish or cabbage were treated by spraying the active ingredient prepared as described above. Control plants were treated only with an aqueous solution of Acetone/Dimethyl sulfoxide/Tween® 80. After 24 hours, the plants were contaminated by spraying the leaves with an aqueous suspension of Alternaria brassicae spores. The contaminated radish or cabbage plants were incubated for 3 to 4 days at 20° C. and at 100% relative humidity.

Data set [2] deals with Botrytis cinerea. In words: In vivo preventive test on Botrytis cinerea (grey mould). To be noted: 500 ppm of active ingredient, preventive spray on gherkin or cabbage, evaluated 4 to 5 days after inoculation, read-out: efficacy. The procedure: B-2. In Vivo Preventive Test on Botrytis cinerea (Grey Mould) [table] The active ingredients were made soluble and homogenized in a mixture of Dimethyl sulfoxide/Acetone/Tween® 80 and then diluted in water to the desired concentration. The young plants of gherkin or cabbage were treated by spraying the active ingredient prepared as described above. Control plants were treated only with an aqueous solution of Acetone/Dimethyl sulfoxide/Tween® 80. After 24 hours, the plants were contaminated by spraying the leaves with an aqueous suspension of Botrytis cinerea spores. The contaminated gherkin plants were incubated for 4 to 5 days at 17° C. and at 90% relative humidity. The contaminated cabbage plants were incubated for 4 to 5 days at 20° C. and at 100% relative humidity.

The next data set deals with Alternaria alternata. Nature of the data set: Alternaria alternata in vitro cell test. In kind it is cell-based. Conditions: 120 h, 20 ppm of active ingredient, liquid culture, 5 days incubation, spectrometric measurement of mycelium growth, read-out: efficacy (inhibition of fungal growth). The procedure: (§1) B-6. Alternaria alternata In Vitro Cell Test [table] Fungicides were solubilized in DMSO and the solution used to prepare the required range of concentrations. The final concentration of DMSO used in the assay was ≤1%. A spore suspension of A. alternata was prepared and diluted to the desired spore density. Fungicides were evaluated for their ability to inhibit spore germination and mycelium growth in liquid culture assay. The compounds were added in the desired concentration to the culture medium with spores. After 5 days incubation, fungi-toxicity of compounds was determined by spectrometric measurement of mycelium growth. Inhibition of fungal growth was determined by comparing the absorbance values in wells containing the fungicides with the absorbance in control wells without fungicides.

The test system of data set [3] is Colletotrichum lindemuthianum. In words: B-8. Colletotrichum lindemuthianum in vitro cell test. It counts as cell-based. Conditions: 144 h, 20 ppm of active ingredient, 6 days incubation, liquid culture, absorbance, read-out: efficacy (inhibition of fungal growth). The procedure:
as §1, with “B-8. Colletotrichum lindemuthianum In” for “B-6. Alternaria alternata In”, “of C. lindemuthianum” for “of A. alternata”, “inhibit spores” for “inhibit spore”, “After 6” for “After 5”

Data set [4] has as its system Botrytis cinerea. Nature of the data set: B-11. Botrytis cinerea in vitro cell test. It counts as cell-based. To be noted: 144 h, 20 ppm of active ingredient, 6 days incubation, liquid culture, absorbance, read-out: efficacy (inhibition of fungal growth). The procedure: as §1, with “B-11. Botrytis cinerea” for “B-6. Alternaria alternata”, “B. cinerea” for “A. alternata”, “6” for “5”

Setting [5] is: method [a]: LC-UV, acidic range, 0.1% formic acid in water and acetonitrile as eluent.

As a reminder, the chromatographic logP is lipophilicity estimated from chromatographic retention. Low values mean a more hydrophilic compound, high ones a more lipophilic compound. One may read the inhibition as the drop in the measured response relative to a control, in per cent. For the molecule `Cc1ccc(CCNC(=O)c2c(Oc3cccc(C(F)(F)F)c3)nnc3cnccc23)c(C)c1` [I-011], the chromatographic logP in data set [1] (setting [5]) amounted to 3.88. Further, the pest or weed control at 500 ppm with Alternaria brassicae is 80 to 89%; with Botrytis cinerea [2], 90 to 100%. In addition, the inhibition at 20 ppm with Alternaria alternata was 90 to 100%.

In data set [1] (setting [5]), `O=C(NCC(F)(F)c1ccc(Br)cc1Cl)c1c(Oc2ccc(Cl)cc2)nnc2ccccc12` [I-019] showed a chromatographic logP of 4.46. Besides, the pest or weed control at 500 ppm was 70 to 79% with Alternaria brassicae and 90 to 100% in the data set on Botrytis cinerea [2]. The inhibition at 20 ppm with Alternaria alternata lay in the range of 80 to 89%.

In the case of `O=C(N[C@H]1CCCc2cc(Cl)sc21)c1c(Oc2cccc(C(F)(F)F)c2)cnc2ccccc12` (racemic) [I-040], the chromatographic logP in data set [1] (setting [5]) stood at 4.54. Moreover, the pest or weed control at 500 ppm in the data set with Botrytis cinerea [2] was 80 to 89%. The inhibition at 20 ppm (in the data set on Alternaria alternata; in data set [3]) was 90 to 100% each time.

Molecule `N#Cc1cccc(Oc2nnc3ccccc3c2C(=O)NCC(F)(F)c2ccc(Cl)cc2)c1` [I-160] yielded a chromatographic logP in data set [1] (setting [5]) of 3.33. The pest or weed control at 500 ppm in the data set on Alternaria brassicae was 80 to 89%. Also, the inhibition at 20 ppm (in the data set with Alternaria alternata; in data set [3]) was 90 to 100% in each case.

Regarding `Cc1ccc2c(C(=O)N[C@H]3CCCc4cc(Br)ccc43)c(Oc3cccc(C(F)(F)F)c3)nnc2c1` (racemic) [I-181], the chromatographic logP in data set [1] (setting [5]) is 4.88. For the same molecule, the inhibition at 20 ppm in the data set with Alternaria alternata lay in the range of 80 to 89%.

For the molecule `O=C(NCC(F)(F)c1ccc(Cl)cn1)c1c(Oc2cccc(C(F)(F)F)c2)cnc2ccccc12` [I-038], the chromatographic logP in data set [1] (setting [5]) amounted to 3.74. Also, the inhibition at 20 ppm in data set [3] lay in the range of 70 to 79%.

As for `Cc1ccc(CCNC(=O)c2c(Oc3cccc(C(F)(F)F)c3)nnc3c(C)cccc23)c(C)c1` [I-005], the chromatographic logP in data set [1] (setting [5]) turned out to be 4.69. Further, the pest or weed control at 500 ppm in the data set on Botrytis cinerea [2] lay within 90 to 100%. Further, the figures for the inhibition at 20 ppm (in the data set with Alternaria alternata; in data set [3]) were 90 to 100% and 80 to 89%, respectively.

`C[C@H](NC(=O)c1c(Oc2cccc(Cl)c2)nnc2ccccc12)c1cccc(C(F)(F)F)c1` (racemic) [I-016]: in data set [1] (setting [5]), the chromatographic logP was found to be 3.9. Besides, the pest or weed control at 500 ppm with Alternaria brassicae and in the data set on Botrytis cinerea [2] was 90 to 100% in each case. In addition, the inhibition at 20 ppm (with Alternaria alternata; in data set [3]) was 80 to 89% throughout.

The molecule `O=C(N/C=C\c1ccccc1)c1c(Oc2cccc(C(F)(F)F)c2)cnc2ccccc12` [I-001] returned a chromatographic logP in data set [1] (setting [5]) of 4.17. For the same molecule, in the data set with Botrytis cinerea [2], the pest or weed control at 500 ppm is 90 to 100%. In addition, in the data set on Alternaria alternata, the inhibition at 20 ppm lay within 70 to 79%.

As to `Cc1ccc2c(C(=O)NCC(F)(F)c3ccc(Br)cc3Cl)c(Oc3cccc(C(F)(F)F)c3)nnc2c1` [I-045], the chromatographic logP in data set [1] (setting [5]) worked out at 4.64. Further, the pest or weed control at 500 ppm with Alternaria brassicae and in the data set with Botrytis cinerea [2] was 90 to 100% throughout. The inhibition at 20 ppm (in the data set on Alternaria alternata; in data set [3]) was 90 to 100% in each case.

With `O=C(NC[C@@H](F)c1ccc(Cl)c(Cl)c1)c1c(Oc2cccc(Cl)c2)nnc2ccccc12` (racemic) [I-051], in data set [1] (setting [5]), the chromatographic logP is 4.23. Moreover, in the data set on Alternaria brassicae, the pest or weed control at 500 ppm lay in the range of 70 to 79%. Also, the inhibition at 20 ppm (with Alternaria alternata; in data set [3]) was 90 to 100% in each case.

For the molecule `O=C(NCC(F)(F)c1ccc(Cl)cc1)c1c(Oc2ccc(Cl)cc2)nnc2ccccc12` [I-018], the chromatographic logP in data set [1] (setting [5]) was determined as 3.96. The pest or weed control at 500 ppm with Botrytis cinerea [2] lay within 90 to 100%. In the data set with Alternaria alternata, the inhibition at 20 ppm is 80 to 89%.

Molecule `N#Cc1cccc(Oc2nnc3ccccc3c2C(=O)NCC(F)(F)c2ccc(Br)cc2Cl)c1` [I-032] showed a chromatographic logP in data set [1] (setting [5]) of 3.77. In addition, in the data set on Botrytis cinerea [2], the pest or weed control at 500 ppm was 90 to 100%. The inhibition at 20 ppm (with Alternaria alternata; in data set [3]) was 90 to 100% in each case.

In the case of `N#Cc1cccc(Oc2nnc3ccccc3c2C(=O)NCC(F)(F)c2ccc(Cl)cn2)c1` [I-248], the chromatographic logP in data set [1] (setting [5]) is 2.84; in data set [1] (method [b]: LC-UV, neutral range, 0.001 molar ammonium acetate solution in water and acetonitrile as eluent), 2.94. Moreover, in data set [3], the inhibition at 20 ppm fell in the range of 70 to 79%.

For `Cc1ccc(C(F)(F)CNC(=S)c2c(Oc3cccc(Cl)c3)nnc3ccccc23)c(C)c1` [I-158, 3-(3-chlorophenoxy)-N-[2-(2,4-dimethylphenyl)-2,2-difluoro-ethyl]cinnoline-4-carbothioamide], the chromatographic logP in data set [1] (setting [5]) worked out at 5.01. Also, in the data set with Alternaria brassicae, the pest or weed control at 500 ppm lay in the range of 90 to 100%. The inhibition at 20 ppm (with Alternaria alternata; in data set [3]) was 90 to 100% in each case.

The molecule `O=C(NCC(F)(F)c1ccc(Br)cc1Cl)c1c(Oc2cccc(Cl)c2)nnc2ccccc12` [I-013] registered a chromatographic logP in data set [1] (setting [5]) of 4.46. The pest or weed control at 500 ppm in the data set with Alternaria brassicae and in the data set on Botrytis cinerea [2] was 90 to 100% each time. Also, the inhibition at 20 ppm (with Alternaria alternata; in data set [3]) was 90 to 100% each time.

Molecule `N#Cc1cccc(Oc2nnc3ccccc3c2C(=O)NC[C@H](F)c2ccc(Br)cc2Cl)c1` (racemic) [I-031] showed a chromatographic logP in data set [1] (setting [5]) of 3.65. Also, the pest or weed control at 500 ppm in the data set with Alternaria brassicae and in the data set on Botrytis cinerea [2] was 90 to 100% each time. Moreover, the inhibition at 20 ppm (in the data set with Alternaria alternata; in data set [3]) was 90 to 100% each time.

Consider `Cc1ccc(CCNC(=O)c2c(Oc3cccc(C(F)(F)F)c3)nnc3cc(F)ccc23)c(C)c1` [I-007], for which the chromatographic logP in data set [1] (setting [5]) turned out to be 4.4. Besides, the pest or weed control at 500 ppm with Botrytis cinerea [2] fell in the range of 90 to 100%. For the same molecule, the inhibition at 20 ppm (in the data set on Alternaria alternata; in data set [3]) was 90 to 100% throughout.

In turn, `COc1ccc2c(C(=O)NCCc3ccc(C)cc3C)c(Oc3cccc(C(F)(F)F)c3)nnc2c1` [I-009] yielded a chromatographic logP in data set [1] (setting [5]) of 4.3. The inhibition at 20 ppm in the data set on Alternaria alternata lay in the range of 90 to 100%.

Take `Cc1ccc(C(F)(F)CNC(=O)c2c(Oc3cccc(C#N)c3)nnc3ccccc23)c(C)c1` [I-030]: the chromatographic logP in data set [1] (setting [5]) stood at 3.58. In addition, the pest or weed control at 500 ppm with Botrytis cinerea [2] was in the range of 90 to 100%. In addition, the inhibition at 20 ppm (in the data set with Alternaria alternata; in data set [3]) was 90 to 100% each time.

In data set [1] (setting [5]), `O=C(NCC(F)(F)c1ccc(Cl)cn1)c1c(Oc2cccc(C(F)F)c2)nnc2ccccc12` [I-036] gave a chromatographic logP of 3.2. Besides, the pest or weed control at 500 ppm in the data set with Alternaria brassicae and in the data set with Botrytis cinerea [2] was 90 to 100% each time. Also, the inhibition at 20 ppm (in the data set on Alternaria alternata; in data set [3]) was 90 to 100% each time.

`CC(C)CON(Cc1ccccc1)C(=O)c1c(Oc2cccc(C(F)(F)F)c2)nnc2ccccc12` [I-170] had a chromatographic logP in data set [1] (setting [5]) of 4.86. Also, the inhibition at 20 ppm in data set [3] lay in the range of 70 to 79%; in the data set on Botrytis cinerea [4] it was 90 to 100%.

Turning to `C[C@H](NC(=O)c1c(Oc2cccc(C(F)(F)F)c2)nnc2ccccc12)c1cccc(C(F)(F)F)c1` (racemic) [I-022], the chromatographic logP in data set [1] (setting [5]) was 4.03. Besides, the pest or weed control at 500 ppm in the data set on Botrytis cinerea [2] was in the range of 90 to 100%. For the same molecule, the inhibition at 20 ppm was 80 to 89% in the data set with Alternaria alternata and 70 to 79% in data set [3].
